By EC50 is commonly meant the concentration that produces a half-maximal response. Higher therefore signals a less potent agent.

From patent publication US11078198B2 (BRISTOL-MYERS SQUIBB COMPANY, priority 2017, dated 2021) come the findings set out here.

The target of the assay is T1, human FXR (Homo sapiens, UniProt Q96RI1).
T1 construct: expressed in transfected cells; host or cells: HEK293 cells stably carrying a 5xGal4-response-element firefly luciferase reporter, transiently transfected with pcDNA3.1-Gal4-FXR
T1 sequence (Q96RI1 262-486 limits assumed): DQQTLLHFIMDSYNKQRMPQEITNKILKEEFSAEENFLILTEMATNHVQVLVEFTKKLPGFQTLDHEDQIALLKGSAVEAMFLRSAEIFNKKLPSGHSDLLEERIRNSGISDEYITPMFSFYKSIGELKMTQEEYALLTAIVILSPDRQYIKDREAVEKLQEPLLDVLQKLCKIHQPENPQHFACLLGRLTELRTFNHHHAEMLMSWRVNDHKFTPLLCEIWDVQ
The assay can be described thus: transient human FXR/Gal4-luciferase reporter assay. The class given is cell-based. Particulars: Gal4-hFXR transfected HEK293 reporter cells; relative to 8 μM GW-4064. In a few lines: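 Transient Gal4-hFXR LBD fusion (pcDNA3.1, Lipofectamine, overnight) expressed in a HEK293 reporter line stably bearing five Gal4 elements upstream of firefly luciferase, grown in charcoal/dextran-stripped FBS. Compound dilutions in DMSO incubated with cells overnight at 37° C, 5% CO2, before luciferase readout.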
Background: A reporter such as luciferase makes a cellular process visible.
Compound `O=C(O)c1ccc2cc(N3CCC4(C=C(c5c(-c6cnccc6C(F)(F)F)noc5C5CC5)C4)CC3)ccc2n1` [Example 154, 6-(2-(5-Cyclopropyl-3-(4-(trifluoromethyl)pyridin-3-yl)isoxazol-4-yl)-7-azaspiro[3.5]non-1-en-7-yl)quinoline-2-carboxylic acid] gave a half-maximal effective concentration (EC50) of 554 nM. In turn, `O=C(O)c1ccc2cc(N3CCC4(C=C(c5c(-c6c(F)cccc6Cl)noc5C5CC5)C4)CC3)ccc2n1` [Example 156, 6-(2-(3-(2-Chloro-6-fluorophenyl)-5-cyclopropylisoxazol-4-yl)-7-azaspiro[3.5]non-1-en-7-yl)quinoline-2-carboxylic acid] came in with an EC50 of 326 nM. The same measure for `Cc1cccc(Cl)c1-c1noc(C2CC2)c1C1=CC2(CCN(c3ccc4nc(C(=O)O)ccc4c3)CC2)C1` [Example 157, 6-(2-(3-(2-Chloro-6-methylphenyl)-5-cyclopropylisoxazol-4-yl)-7-azaspiro[3.5]non-1-en-7-yl)quinoline-2-carboxylic acid]: 223 nM; for `O=C(O)c1cc2ccc(N3CCC4(C=C(c5c(-c6c(F)cccc6Cl)noc5C5CC5)C4)CC3)cc2cn1` [Example 158, 7-(2-(3-(2-Chloro-6-fluorophenyl)-5-cyclopropylisoxazol-4-yl)-7-azaspiro[3.5]non-1-en-7-yl)isoquinoline-3-carboxylic acid]: 459 nM. The same measure for `O=C(O)c1cc2ccc(N3CCC4(C=C(c5c(-c6ccccc6C(F)(F)F)noc5C5CC5)C4)CC3)cc2cn1` [Example 159, 7-(2-(5-Cyclopropyl-3-(2-(trifluoromethyl)phenyl)isoxazol-4-yl)-7-azaspiro[3.5]non-1-en-7-yl)isoquinoline-3-carboxylic acid]: 254 nM; for `O=C(O)c1cc2ccc(N3CCC4(C=C(c5c(-c6cnccc6C(F)(F)F)noc5C5CC5)C4)CC3)cc2cn1` [Example 160, 7-(2-(5-Cyclopropyl-3-(4-(trifluoromethyl)pyridin-3-yl)isoxazol-4-yl)-7-azaspiro[3.5]non-1-en-7-yl)isoquinoline-3-carboxylic acid]: 1610 nM. On to `O=C(O)c1cc2ccc(N3CCC4(C=C(c5c(-c6ncccc6Cl)noc5C5CC5)C4)CC3)cc2cn1` [Example 161, 7-(2-(3-(3-Chloropyridin-2-yl)-5-cyclopropylisoxazol-4-yl)-7-azaspiro[3.5]non-1-en-7-yl) isoquinoline-3-carboxylic acid], for which the EC50 worked out at 2320 nM.

For the compound `O=C(O)c1cc2ccc(N3CCC4(C=C(c5c(-c6c(F)cccc6F)noc5C5CC5)C4)CC3)cc2cn1` [Example 162, 7-(2-(5-Cyclopropyl-3-(2,6-difluorophenyl)isoxazol-4-yl)-7-azaspiro[3.5]non-1-en-7-yl)isoquinoline-3-carboxylic acid], the midpoint of the response, the EC50, lay at 2820 nM. As to `O=C(O)c1cnc(N2CCC3(C=C(c4c(-c5ccccc5C(F)(F)F)noc4C4CC4)C3)CC2)cc1C(F)(F)F` [Example 163, 6-(2-(5-Cyclopropyl-3-(2-(trifluoromethyl)phenyl)isoxazol-4-yl)-7-azaspiro[3.5]non-1-en-7-yl)-4-(trifluoromethyl)nicotinic acid], the half-maximal effective concentration (EC50) was determined as 344 nM. For `Cn1nc(C(=O)O)c2ccc(N3CCC4(C=C(c5c(-c6ccccc6C(F)(F)F)noc5C5CC5)C4)CC3)cc21` [Example 164, 6-(2-(5-Cyclopropyl-3-(2-(trifluoromethyl)phenyl)isoxazol-4-yl)-7-azaspiro[3.5]non-1-en-7-yl)-1-methyl-1H-indazole-3-carboxylic acid] the value was 392 nM; for `Cn1nc(C(=O)O)c2ccc(N3CCC4(C=C(c5c(-c6ccccc6OC(F)(F)F)noc5C5CC5)C4)CC3)cc21` [Example 165, 6-(2-(5-Cyclopropyl-3-(2-(trifluoromethoxy)phenyl)isoxazol-4-yl)-7-azaspiro[3.5]non-1-en-7-yl)-1-methyl-1H-indazole-3-carboxylic acid], 2980 nM.

On to `O=C(O)c1nc(C(F)(F)F)n2cc(N3CCC4(C=C(c5c(-c6ccccc6OC(F)(F)F)noc5C5CC5)C4)CC3)ccc12` [Example 166, 6-(2-(5-Cyclopropyl-3-(2-(trifluoromethoxy)phenyl)isoxazol-4-yl)-7-azaspiro[3.5]non-1-en-7-yl)-3-(trifluoromethyl)imidazo[1,5-a]pyridine-1-carboxylic acid], for which the EC50 amounted to 494 nM. For `CCOc1cc(C(=O)O)nc2ccc(N3CCC4(C=C(c5c(C6CCCCC6)noc5C5CC5)C4)CC3)cc12` [Example 167, 6-(2-(3-Cyclohexyl-5-cyclopropylisoxazol-4-yl)-7-azaspiro[3.5]non-1-en-7-yl)-4-ethoxyquinoline-2-carboxylic acid] the value was 3100 nM; for `Cn1cc(C(=O)O)c2ccc(N3CCC4(C=C(c5c(C6CCCCC6)noc5C5CC5)C4)CC3)cc21` [Example 168, 6-(2-(3-Cyclohexyl-5-cyclopropylisoxazol-4-yl)-7-azaspiro[3.5]non-1-en-7-yl)-1-methyl-1H-indole-3-carboxylic acid], 3970 nM. For `Cc1cc(C(=O)O)nc(N2CCC3(C=C(c4c(-c5ccccc5C(F)(F)F)noc4C4CC4)C3)CC2)n1` [Example 169, 2-(2-(5-Cyclopropyl-3-(2-(trifluoromethyl)phenyl)isoxazol-4-yl)-7-azaspiro[3.5]non-1-en-7-yl)-6-methylpyrimidine-4-carboxylic acid] the value was 1300 nM; for `Cc1c(N2CCC3(C=C(c4c(-c5ccccc5C(F)(F)F)noc4C4CC4)C3)CC2)ccc2cc(C(=O)O)cnc12` [Example 170, 7-(2-(5-Cyclopropyl-3-(2-(trifluoromethyl)phenyl)isoxazol-4-yl)-7-azaspiro[3.5]non-1-en-7-yl)-8-methylquinoline-3-carboxylic acid], 1750 nM. For `O=C(O)c1ccc(N2CCC3(C=C(c4c(-c5ncccc5Cl)noc4C4CC4)C3)CC2)nc1` [Example 171, 6-(2-(3-(3-Chloropyridin-2-yl)-5-cyclopropylisoxazol-4-yl)-7-azaspiro[3.5]non-1-en-7-yl)nicotinic acid], a half-maximal effect (EC50) was put at 1870 nM. The same measure for `Cn1c(C(=O)O)cc2cc(N3CCC4(C=C(c5c(-c6ccccc6OC(F)(F)F)noc5C5CC5)C4)CC3)ncc21` [Example 172, 5-(2-(5-Cyclopropyl-3-(2-(trifluoromethoxy)phenyl)isoxazol-4-yl)-7-azaspiro[3.5]non-1-en-7-yl)-1-methyl-1H-pyrrolo[2,3-c]pyridine-2-carboxylic acid]: 2370 nM; for `Cn1nc(N2CCC3(C=C(c4c(-c5ccccc5OC(F)(F)F)noc4C4CC4)C3)CC2)c2ncc(C(=O)O)cc21` [Example 173, 3-(2-(5-Cyclopropyl-3-(2-(trifluoromethoxy)phenyl)isoxazol-4-yl)-7-azaspiro[3.5]non-1-en-7-yl)-1-methyl-1H-pyrazolo[4,3-b]pyridine-6-carboxylic acid]: 2790 nM; for `Cn1nc(C(=O)O)c2cc(N3CCC4(C=C(c5c(-c6ccccc6OC(F)(F)F)noc5C5CC5)C4)CC3)ccc21` [Example 174, 5-(2-(5-Cyclopropyl-3-(2-(trifluoromethoxy)phenyl)isoxazol-4-yl)-7-azaspiro[3.5]non-1-en-7-yl)-1-methyl-1H-indazole-3-carboxylic acid]: 236 nM. `Cn1nc(C#N)c2ccc(N3CCC4(C=C(c5c(-c6ccccc6OC(F)(F)F)noc5C5CC5)C4)CC3)cc21` [Example 175, 6-(2-(5-Cyclopropyl-3-(2-(trifluoromethoxy)phenyl)isoxazol-4-yl)-7-azaspiro[3.5]non-1-en-7-yl)-1-methyl-1H-indazole-3-carbonitrile] returned a concentration for a half-maximal effect (EC50) of 3240 nM. The same measure for `O=C(O)c1cnc2nc(N3CCC4(C=C(c5c(-c6c(Cl)cccc6Cl)noc5C5CC5)C4)CC3)sc2c1` [Example 177, 2-(2-(5-Cyclopropyl-3-(2,6-dichlorophenyl)isoxazol-4-yl)-7-azaspiro[3.5]non-1-en-7-yl)thiazolo[4,5-b]pyridine-6-carboxylic acid]: 121 nM; for `O=C(O)c1cnc2cc(N3CCC4(C=C(c5c(-c6ccccc6C(F)(F)F)noc5C5CC5)C4)CC3)ccc2n1` [Example 178, 6-(2-(5-Cyclopropyl-3-(2-(trifluoromethyl)phenyl)isoxazol-4-yl)-7-azaspiro[3.5]non-1-en-7-yl)quinoxaline-2-carboxylic acid]: 172 nM. For `O=C(NS(=O)(=O)C1CC1)c1cc(F)c2nc(N3CCC4(C=C(c5c(-c6c(Cl)cccc6Cl)noc5C5CC5)C4)CC3)sc2c1` [Example 179, 2-(2-(5-Cyclopropyl-3-(2,6-dichlorophenyl)isoxazol-4-yl)-7-azaspiro[3.5]non-1-en-7-yl)-N-(cyclopropylsulfonyl)-4-fluorobenzo[d]thiazole-6-carboxamide] the value was 13 nM; for `CS(=O)(=O)NC(=O)c1cc(F)c2nc(N3CCC4(C=C(c5c(-c6c(Cl)cccc6Cl)noc5C5CC5)C4)CC3)sc2c1` [Example 180, 2-(2-(5-Cyclopropyl-3-(2,6-dichlorophenyl)isoxazol-4-yl)-7-azaspiro[3.5]non-1-en-7-yl)-4-fluoro-N-(methylsulfonyl)benzo[d]thiazole-6-carboxamide], 35 nM; for `O=C(NS(=O)(=O)C1CC1)c1cc(F)c2nc(N3CCC4(C=C(c5c(-c6c(Cl)cncc6Cl)noc5C5CC5)C4)CC3)sc2c1` [Example 181, 2-(2-(5-Cyclopropyl-3-(3,5-dichloropyridin-4-yl)isoxazol-4-yl)-7-azaspiro[3.5]non-1-en-7-yl)-N-(cyclopropylsulfonyl)-4-fluorobenzo[d]thiazole-6-carboxamide], 60 nM.
